Each structure is given as a SMILES string.

Experimental findings from patent US20200188477A1, “A MEDICAMENT FOR THE TREATMENT OF DISEASES BY BIOFILM FORMING MICROORGANISMS” (priority 2017, published 2020) are described below.

In the experiment the test system is M. smegmatis over-expressing M. tuberculosis PpiB protein. Put plainly: Biofilm formation assay (crystal violet). The format is cell-based, Mycobacterium smegmatis. The following applies: Ms_PpiB (Tet+), 7 days, absorbance 550 nm.

For the molecule `C[C@H]1O[C@H](O[C@H]2[C@H](O)[C@@H](O)[C@@H](O[C@H]3[C@H](O)[C@@H](O)C(O)O[C@@H]3CO)O[C@@H]2CO)[C@H](O)[C@@H](O)[C@@H]1N[C@H]1C=C(CO)[C@@H](O)[C@H](O)[C@H]1O` (stereo partly shown) [acarbose], the “concentration at which treatment significantly reduced biofilm formation” value was “above 500 μg/ml”.
